Experimental data taken from patent publication US8481501B2 (priority 2004, dated 2013).

Columns and labels:
kappa opioid receptor [1] = biological target: T1, kappa opioid receptor (Homo sapiens, UniProt P41145); experiment: Ke at kappa, CHO membranes; format: biochemical; set-up: expressed in transfected cells; host or cells: CHO; conditions: Table 7, CHO membranes
delta opioid receptor [2] = biological target: T2, delta opioid receptor (Homo sapiens, UniProt P41143); experiment: Stimulation of [35S]GTPγS binding (coupling to G proteins); format: biochemical; set-up: expressed in transfected cells; host or cells: transfected cells; conditions: for Emax / EC50: Table 8; for EC50: read-out: delta EC50
T2 sequence (P41143 whole entry): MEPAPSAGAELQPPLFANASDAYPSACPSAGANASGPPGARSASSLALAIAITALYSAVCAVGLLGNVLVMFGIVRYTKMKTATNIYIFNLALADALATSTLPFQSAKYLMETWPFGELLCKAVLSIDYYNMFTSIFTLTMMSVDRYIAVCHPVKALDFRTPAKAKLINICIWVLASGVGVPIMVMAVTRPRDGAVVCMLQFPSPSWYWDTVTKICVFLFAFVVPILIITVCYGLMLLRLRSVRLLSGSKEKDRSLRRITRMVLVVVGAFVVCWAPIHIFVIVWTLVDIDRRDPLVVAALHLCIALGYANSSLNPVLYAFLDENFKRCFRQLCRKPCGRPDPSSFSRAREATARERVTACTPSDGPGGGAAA

kappa opioid receptor [3] = biological target: T1, kappa opioid receptor; experiment: biochemical; format: biochemical; set-up: expressed in transfected cells; host or cells: transfected cells; conditions: for Emax / EC50: Table 8; for Emax: read-out: kappa % stimulation; for EC50: read-out: kappa EC50
kappa opioid receptor [4] = biological target: T1, kappa opioid receptor; experiment: biochemical; format: binding; set-up: expressed in transfected cells; host or cells: transfected cells; conditions: Table 7, CHO membranes; for Ki: read-out: Ki kappa
delta opioid receptor [5] = biological target: T2, delta opioid receptor; experiment: biochemical; format: binding; set-up: expressed in transfected cells; host or cells: transfected cells; conditions: Table 7, CHO membranes; for Ki: read-out: Ki delta
adult male rats = experiment: Precipitation of somatic signs of withdrawal after acute morphine; format: in vivo, rat; conditions: s.c., 4 hr after morphine 5.0 mg/kg
delta opioid receptor [6] = biological target: T2, delta opioid receptor; experiment: Ke at delta, CHO membranes; format: biochemical; set-up: expressed in transfected cells; host or cells: CHO; conditions: Table 7, CHO membranes

T1 sequence (P41145 whole entry): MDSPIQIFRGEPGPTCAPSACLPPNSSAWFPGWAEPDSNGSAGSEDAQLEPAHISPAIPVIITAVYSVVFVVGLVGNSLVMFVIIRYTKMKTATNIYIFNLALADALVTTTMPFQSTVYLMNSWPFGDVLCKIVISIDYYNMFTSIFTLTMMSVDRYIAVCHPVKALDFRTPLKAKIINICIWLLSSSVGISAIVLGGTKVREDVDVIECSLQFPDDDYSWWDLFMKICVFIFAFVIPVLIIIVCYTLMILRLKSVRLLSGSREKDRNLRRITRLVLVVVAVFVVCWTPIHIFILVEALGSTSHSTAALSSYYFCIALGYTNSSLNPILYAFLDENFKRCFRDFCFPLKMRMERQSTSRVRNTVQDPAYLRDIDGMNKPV

| Structure (SMILES) | Ke(other) (kappa) (kappa opioid receptor [1]) | Emax (delta opioid receptor [2]) [%] | EC50 (delta opioid receptor [2]) [nM] | agonist/antagonist character at the delta receptor (delta opioid receptor [2]; based on [35S]GTPγS binding) | Emax (kappa opioid receptor [3]) [%] | EC50 (kappa opioid receptor [3]) [nM] | agonist/antagonist character at the kappa receptor (kappa opioid receptor [3]; based on [35S]GTPγS binding) | Ki kappa (kappa opioid receptor [4]) | Ki (kappa opioid receptor [4]) [nM] | Ki delta (delta opioid receptor [5]) | Ki (delta opioid receptor [5]) [nM] | approximate EC50 for precipitation of somatic signs of withdrawal (adult male rats) | Ke(other) (delta) (delta opioid receptor [6]) |
| --- | --- | --- | --- | --- | --- | --- | --- | --- | --- | --- | --- | --- | --- |
| O=C(CC1OC(CO)C(O)C(O)C1O)NC1CCC2(O)C3Cc4ccc(O)c5c4C2(CCN3CC2CC2)C1O5 (stereo not drawn) [6a, 14-Hydroxy-17-(cyclopropylmethyl)nordesmorphine-6-acetamidoglucose] | 13.39 ± 1.51 | 43.1 | 90.9 | partial agonist | 11 | 11.2 | strong antagonist | moderate affinity | 10.4 ± 2.8 | moderate affinity | 91.3 ± 3.8 | approximately 1 mg/kg |  |
| O=C(C[C@@H]1O[C@H](COCc2ccccc2)[C@@H](OCc2ccccc2)[C@H](OCc2ccccc2)[C@H]1OCc1ccccc1)NC1CC[C@@]2(O)[C@H]3Cc4ccc(O)c5c4[C@@]2(CCN3CC2CC2)[C@H]1O5 (stereo partly drawn) [compound 5, 6-acetamido-2,3,4,6-tetra-O-benzyl-D-glucopyranosyl-14-Hydroxy-17-(cyclopropylmethyl)nordesmorphine] |  | 20.5 | 107 |  | 45.5 | 10.8 |  | moderate affinity | 39 ± 6.3 | low affinity | 140 ± 13.9 |  | 10.35 ± 2.01 |
